# Experimental data taken from patent US20250163104A1, “MACROCYCLIC IMMUNOMODULATORS” (priority 2021, published 2025).
# pIC50: −log10 of the molar value. Where a SMILES comes first, the peptide text is derived from it. Bridges are numbered along the chain shown (N, C = ends). [ ]: non-standard residue; d: D form. The star is where a group is joined. Tyr(3,5-F2) = N[C@@H](Cc1cc(F)c(O)c(F)c1)C(=O)O; Phe(4-COOH) = N[C@@H](Cc1ccc(C(=O)O)cc1)C(=O)O; Phe(4-CH2NH2) = NCc1ccc(C[C@H](N)C(=O)O)cc1; Tyr(3-Cl) = N[C@@H](Cc1ccc(O)c(Cl)c1)C(=O)O; Bip = N[C@@H](Cc1ccc(-c2ccccc2)cc1)C(=O)O; Phe(4-NH2) = Nc1ccc(C[C@H](N)C(=O)O)cc1; Phe(3-Me) = Cc1cccc(C[C@H](N)C(=O)O)c1; 3Pal = N[C@@H](Cc1cccnc1)C(=O)O; Cha = N[C@@H](CC1CCCCC1)C(=O)O; dDab = NCC[C@@H](N)C(=O)O; Carboxymethyl = O=C(O)C*; Orn = NCCC[C@H](N)C(=O)O; Dab = NCC[C@H](N)C(=O)O; Dap = NC[C@H](N)C(=O)O; Ac3c = NC1(C(=O)O)CC1; Piv = CC(C)(C)C(=O)*
# Target: T1, human PD-1 / PD-L1-Ig binding on Jurkat cell line over-expressing human PD-1 (Jurkat-PD-1) (Homo sapiens, UniProt Q15116)
# T1 construct: expressed in transfected cells; host or cells: Jurkat
# T1 sequence (Q15116 25-288): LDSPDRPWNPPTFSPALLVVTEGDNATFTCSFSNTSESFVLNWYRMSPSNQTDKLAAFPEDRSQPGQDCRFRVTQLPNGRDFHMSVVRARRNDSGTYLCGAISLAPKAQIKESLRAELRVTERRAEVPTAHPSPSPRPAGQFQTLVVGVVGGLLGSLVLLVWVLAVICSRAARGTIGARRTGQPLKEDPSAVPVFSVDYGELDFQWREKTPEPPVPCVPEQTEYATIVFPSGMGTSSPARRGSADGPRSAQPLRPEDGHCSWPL
# Experiment: Jurkat-PD-1 Cell Binding High-Content Screening Assay (CBA)
# Format: cell-based
# Details: Jurkat-PD-1 cells, PE-labeled PD-L1-Ig 20 nM final; read-out: Jurkat HPD1_PDL1 IC50
# How it was run: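 Jurkat cells over-expressing human PD-1, in DMEM/10% FCS, pre-incubated with compound 2 h at 37° C. PE-labeled human PD-L1-Ig (20 nM final) added for 1 h; cells fixed in paraformaldehyde with Hoechst 33342 nuclear stain, washed, and bound fluorescence quantified by high-content imaging.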
row,Structure (SMILES),pIC50
1,Cc1cccc(C[C@@H]2NC(=O)[C@H](CC(=O)O)NC(=O)[C@H](Cc3ccc(C(=O)O)cc3)NC(=O)[C@H](CN)NC(=O)CSC[C@@H](C(N)=O)NC(=O)[C@H](CO)NC(=O)[C@H](C(C)C)NC(=O)[C@H](CC3CCCCC3)NC(=O)[C@H](CCN)NC(=O)[C@@H](CC(C)C)NC(=O)[C@H](CCCN)NC(=O)[C@H](C(C)C)NC(=O)[C@H](Cc3ccc(-c4ccccc4)cc3)NC(=O)[C@H](Cc3ccc(CN)cc3)NC2=O)c1 [Compound 2031] ({CH2CO}-[Dap][Phe(4-COOH)]D[Phe(3-Me)][Phe(4-CH2NH2)][Bip]V[Orn][dL][Dab][Cha]VSC-NH2; thioether N-14),7.96
2,CC(C)C[C@H]1NC(=O)[C@H](CCCN)NC(=O)[C@H](C(C)C)NC(=O)[C@H](Cc2ccc(-c3ccccc3)cc2)NC(=O)[C@H](C(C)C)NC(=O)[C@H](Cc2ccc(N)cc2)NC(=O)[C@H](CC(=O)O)NC(=O)[C@H](Cc2ccc(OCC(=O)O)cc2)NC(=O)[C@H](CN)NC(=O)CSC[C@@H](C(=O)N[C@@H](CCN)C(N)=O)NC(=O)[C@H](CCCCN)NC(=O)[C@H](C(C)C)NC(=O)[C@H](CC2CCCCC2)NC(=O)[C@H](CCN)NC1=O [Compound 2032] ({CH2CO}-[Dap]Y(Carboxymethyl)D[Phe(4-NH2)]V[Bip]V[Orn][dL][Dab][Cha]VKC[Dab]-NH2; thioether N-14),7.74
3,CC(C)C[C@H]1NC(=O)[C@H](CCCN)NC(=O)[C@H](C(C)C)NC(=O)[C@H](Cc2ccc(-c3ccccc3)cc2)NC(=O)[C@H](C(C)C)NC(=O)[C@H](Cc2ccc(O)cc2)NC(=O)[C@H](CC(=O)O)NC(=O)[C@H](Cc2ccc(OCC(=O)O)cc2)NC(=O)[C@H](CN)NC(=O)CSC[C@@H](C(=O)N[C@@H](CCN)C(N)=O)NC(=O)[C@H](CCCCN)NC(=O)[C@H](C(C)C)NC(=O)[C@H](CC2CCCCC2)NC(=O)[C@H](CCN)NC1=O [Compound 2033] ({CH2CO}-[Dap]Y(Carboxymethyl)DYV[Bip]V[Orn][dL][Dab][Cha]VKC[Dab]-NH2; thioether N-14),7.74
4,"CC(C)C[C@H]1NC(=O)[C@H](CCCN)NC(=O)[C@H](C(C)C)NC(=O)[C@H](Cc2ccc(-c3ccccc3)cc2)NC(=O)[C@H](C(C)C)NC(=O)[C@H](Cc2cc(F)c(O)c(F)c2)NC(=O)[C@H](CC(=O)O)NC(=O)[C@H](Cc2ccc(OCC(=O)O)cc2)NC(=O)[C@H](CN)NC(=O)CSC[C@@H](C(=O)N[C@@H](CCN)C(N)=O)NC(=O)[C@H](CCCCN)NC(=O)[C@H](C(C)C)NC(=O)[C@H](CC2CCCCC2)NC(=O)[C@H](CCN)NC1=O [Compound 2034] ({CH2CO}-[Dap]Y(Carboxymethyl)D[Tyr(3,5-F2)]V[Bip]V[Orn][dL][Dab][Cha]VKC[Dab]-NH2; thioether N-14)",7.08
5,CC(C)C[C@H]1NC(=O)[C@H](CCCN)NC(=O)[C@H](C(C)C)NC(=O)[C@H](Cc2ccc(-c3ccccc3)cc2)NC(=O)[C@H](C(C)C)NC(=O)[C@H](Cc2ccc(O)c(Cl)c2)NC(=O)[C@H](CC(=O)O)NC(=O)[C@H](Cc2ccc(OCC(=O)O)cc2)NC(=O)[C@H](CN)NC(=O)CSC[C@@H](C(=O)N[C@@H](CCN)C(N)=O)NC(=O)[C@H](CCCCN)NC(=O)[C@H](C(C)C)NC(=O)[C@H](CC2CCCCC2)NC(=O)[C@H](CCN)NC1=O [Compound 2035] ({CH2CO}-[Dap]Y(Carboxymethyl)D[Tyr(3-Cl)]V[Bip]V[Orn][dL][Dab][Cha]VKC[Dab]-NH2; thioether N-14),7.82
6,Cc1cccc(C[C@@H]2NC(=O)[C@H](CC(=O)O)NC(=O)[C@H](Cc3ccc(OCC(=O)O)cc3)NC(=O)[C@H](CN)NC(=O)CSC[C@@H](C(=O)N[C@@H](CCN)C(N)=O)NC(=O)[C@H](CCCN)NC(=O)[C@H](C(C)C)NC(=O)[C@H](CC3CCCCC3)NC(=O)[C@H](CCNC(=O)C(C)(C)C)NC(=O)[C@@H](CC(C)C)NC(=O)[C@H](CCCN)NC(=O)[C@H](Cc3ccc(O)cc3)NC(=O)[C@H](Cc3ccc(-c4ccccc4)cc3)NC(=O)[C@H](Cc3ccc(O)cc3)NC2=O)c1 [Compound 2036] ({CH2CO}-[Dap]Y(Carboxymethyl)D[Phe(3-Me)]Y[Bip]Y[Orn][dL][Dab](Piv)[Cha]V[Orn]C[Dab]-NH2; thioether N-14),8.00
7,Cc1cccc(C[C@@H]2NC(=O)[C@H](CC(=O)O)NC(=O)[C@H](Cc3ccc(OCC(=O)O)cc3)NC(=O)[C@H](CN)NC(=O)CSC[C@@H](C(=O)N[C@@H](CCN)C(N)=O)NC(=O)[C@H](CCCN)NC(=O)[C@H](C(C)C)NC(=O)[C@H](CC3CCCCC3)NC(=O)[C@H](Cc3cccnc3)NC(=O)[C@@H](CC(C)C)NC(=O)[C@H](CCCN)NC(=O)[C@H](Cc3ccc(O)cc3)NC(=O)[C@H](Cc3ccc(-c4ccccc4)cc3)NC(=O)[C@H](Cc3ccc(O)cc3)NC2=O)c1 [Compound 2037] ({CH2CO}-[Dap]Y(Carboxymethyl)D[Phe(3-Me)]Y[Bip]Y[Orn][dL][3Pal][Cha]V[Orn]C[Dab]-NH2; thioether N-14),7.05
8,Cc1cccc(C[C@@H]2NC(=O)[C@H](CC(=O)O)NC(=O)[C@H](Cc3ccc(OCC(=O)O)cc3)NC(=O)[C@H](CN)NC(=O)CSC[C@@H](C(=O)N[C@@H](CCN)C(N)=O)NC(=O)[C@H](CCCN)NC(=O)[C@H](C(C)C)NC(=O)[C@H](CC3CCCCC3)NC(=O)[C@H](CCN)NC(=O)[C@@H](CC(C)C)NC(=O)[C@H](CCNC(=O)C(C)(C)C)NC(=O)[C@H](Cc3ccc(O)cc3)NC(=O)[C@H](Cc3ccc(-c4ccccc4)cc3)NC(=O)[C@H](Cc3ccc(O)cc3)NC2=O)c1 [Compound 2038] ({CH2CO}-[Dap]Y(Carboxymethyl)D[Phe(3-Me)]Y[Bip]Y[Dab](Piv)[dL][Dab][Cha]V[Orn]C[Dab]-NH2; thioether N-14),7.71
9,Cc1cccc(C[C@@H]2NC(=O)[C@H](CC(=O)O)NC(=O)[C@H](Cc3ccc(OCC(=O)O)cc3)NC(=O)[C@H](CN)NC(=O)CSC[C@@H](C(=O)N[C@@H](CCN)C(N)=O)NC(=O)[C@H](CCCN)NC(=O)[C@H](C(C)C)NC(=O)[C@H](CC3CCCCC3)NC(=O)[C@H](CCN)NC(=O)[C@@H](CC(C)C)NC(=O)[C@@H](CCN)NC(=O)[C@H](Cc3ccc(O)cc3)NC(=O)[C@H](Cc3ccc(-c4ccccc4)cc3)NC(=O)[C@H](Cc3ccc(O)cc3)NC2=O)c1 [Compound 2039] ({CH2CO}-[Dap]Y(Carboxymethyl)D[Phe(3-Me)]Y[Bip]Y[dDab][dL][Dab][Cha]V[Orn]C[Dab]-NH2; thioether N-14),7.89
10,Cc1cccc(C[C@@H]2NC(=O)[C@H](CC(=O)O)NC(=O)[C@H](Cc3ccc(OCC(=O)O)cc3)NC(=O)[C@H](CCNC(=O)C(C)(C)C)NC(=O)CSC[C@@H](C(=O)N[C@@H](CCN)C(N)=O)NC(=O)[C@H](CCCN)NC(=O)[C@H](C(C)C)NC(=O)[C@H](CC3CCCCC3)NC(=O)[C@H](CCN)NC(=O)[C@@H](CC(C)C)NC(=O)[C@H](CCCN)NC(=O)[C@H](Cc3ccc(O)cc3)NC(=O)[C@H](Cc3ccc(-c4ccccc4)cc3)NC(=O)[C@H](Cc3ccc(O)cc3)NC2=O)c1 [Compound 2040] ({CH2CO}-[Dab](Piv)Y(Carboxymethyl)D[Phe(3-Me)]Y[Bip]Y[Orn][dL][Dab][Cha]V[Orn]C[Dab]-NH2; thioether N-14),8.31
11,Cc1cccc(C[C@@H]2NC(=O)[C@H](CC(=O)O)NC(=O)[C@H](Cc3ccc(OCC(=O)O)cc3)NC(=O)[C@H](Cc3cccnc3)NC(=O)CSC[C@@H](C(=O)N[C@@H](CCN)C(N)=O)NC(=O)[C@H](CCCN)NC(=O)[C@H](C(C)C)NC(=O)[C@H](CC3CCCCC3)NC(=O)[C@H](CCN)NC(=O)[C@@H](CC(C)C)NC(=O)[C@H](CCCN)NC(=O)[C@H](Cc3ccc(O)cc3)NC(=O)[C@H](Cc3ccc(-c4ccccc4)cc3)NC(=O)[C@H](Cc3ccc(O)cc3)NC2=O)c1 [Compound 2041] ({CH2CO}-[3Pal]Y(Carboxymethyl)D[Phe(3-Me)]Y[Bip]Y[Orn][dL][Dab][Cha]V[Orn]C[Dab]-NH2; thioether N-14),8.31
12,Cc1cccc(C[C@@H]2NC(=O)[C@H](CC(=O)O)NC(=O)[C@H](Cc3ccc(OCC(=O)O)cc3)NC(=O)[C@H](CN)NC(=O)CSC[C@@H](C(=O)N[C@@H](CCNC(=O)C(C)(C)C)C(N)=O)NC(=O)[C@H](CCCN)NC(=O)[C@H](C(C)C)NC(=O)[C@H](CC3CCCCC3)NC(=O)[C@H](CCN)NC(=O)[C@@H](CC(C)C)NC(=O)[C@H](CCCN)NC(=O)[C@H](Cc3ccc(O)cc3)NC(=O)[C@H](Cc3ccc(-c4ccccc4)cc3)NC(=O)[C@H](Cc3ccc(O)cc3)NC2=O)c1 [Compound 2042] ({CH2CO}-[Dap]Y(Carboxymethyl)D[Phe(3-Me)]Y[Bip]Y[Orn][dL][Dab][Cha]V[Orn]C[Dab](Piv)-NH2; thioether N-14),8.19
13,Cc1cccc(C[C@@H]2NC(=O)[C@H](CC(=O)O)NC(=O)[C@H](Cc3ccc(OCC(=O)O)cc3)NC(=O)[C@H](CN)NC(=O)CSC[C@@H](C(=O)NC3(C(N)=O)CC3)NC(=O)[C@H](CCCN)NC(=O)[C@H](C(C)C)NC(=O)[C@H](CC3CCCCC3)NC(=O)[C@H](CCN)NC(=O)[C@@H](CC(C)C)NC(=O)[C@H](CCCN)NC(=O)[C@H](Cc3ccc(O)cc3)NC(=O)[C@H](Cc3ccc(-c4ccccc4)cc3)NC(=O)[C@H](Cc3ccc(O)cc3)NC2=O)c1 [Compound 2043] ({CH2CO}-[Dap]Y(Carboxymethyl)D[Phe(3-Me)]Y[Bip]Y[Orn][dL][Dab][Cha]V[Orn]C[Ac3c]-NH2; thioether N-14),7.77
14,Cc1cccc(C[C@@H]2NC(=O)[C@H](CC(=O)O)NC(=O)[C@H](Cc3ccc(OCC(=O)O)cc3)NC(=O)[C@H](CN)NC(=O)CSC[C@@H](C(=O)N[C@@H](CCN)C(N)=O)NC(=O)[C@H](CCNC(=O)C(C)(C)C)NC(=O)[C@H](C(C)C)NC(=O)[C@H](CC3CCCCC3)NC(=O)[C@H](CCN)NC(=O)[C@@H](CC(C)C)NC(=O)[C@H](CCCN)NC(=O)[C@H](Cc3ccc(O)cc3)NC(=O)[C@H](Cc3ccc(-c4ccccc4)cc3)NC(=O)[C@H](Cc3ccc(O)cc3)NC2=O)c1 [Compound 2044] ({CH2CO}-[Dap]Y(Carboxymethyl)D[Phe(3-Me)]Y[Bip]Y[Orn][dL][Dab][Cha]V[Dab](Piv)C[Dab]-NH2; thioether N-14),8.01
